What was measured:
[1] = test system: human lung cancer cell line H460; experiment: LDH analysis (membrane integrity) of H460 cancer cells; format: cell-based; conditions: H460, 3 days
Protocol: (§1) Cancer Cell Culture. The mouse liver cancer cell line BNLT3 (gift of Dr. Jack Wands, Brown University) and the human lung cancer cell line H460 (ATCC) were seeded into 96-well plates at a density of 4,000 cells/well and cultured at 37° C., 5% CO2, in DMEM (11965, Gibco) supplemented with 10% fetal bovine serum, 20 mM HEPES, 1 mM sodium pyruvate, and […] gentamycin (all reagents came from Gibco).
(§2) Cell Insults and Treatments. Determination of concentration for each anticancer drug in our experiments was based on its reported concentration in human cerebral spinal fluid (CSF) in chemotherapy, literature report of its neurotoxicity in culture, and our preliminary in vitro experimental data. […] For ROS examination, the neurons were insulted with both 100 μM of MTX and 25 μM of 5-FU by 15 d.i.v. PAN-811.Cl.H2O was added to cultures to final concentrations of 1.25, 2.5, 5, and 10 μM at the same time as addition of the anticancer drugs.
(§3) Quantitative Assays and Morphological Assessment. Cell membrane integrity and mitochondrial function of either neurons or cancer cells were measured with LDH and 3-(4,5-dimethylthiazol-2-yl)-5-(3-carboxymethoxyphenyl)-2-(4-sulfophenyl)-2H-tetrazolium [MTS] analyses, respectively. The latter has been used to quantify cell survival. For the LDH assay, a mixture of a 35 μL aliquot of culture supernatant and 17.5 μL of Mixed Substrate, Enzyme and Dye Solutions (Sigma) was incubated at room temperature (RT) for 30 minutes. For the MTS assay, 10 μL of MTS reagent (Promega) was added to a culture well containing neurons in 50 μL of medium. The preparations were incubated at 37° C. for 2 hours. The preparations for both assays were then spectrophotometrically measured at 490 nm using a 96-well plate reader (Mode 550, Bio-Rad). Neuronal cell death was morphologically determined based on the integrity of the cell soma and continuity of neuronal processes. The change in number of cancer cells was judged directly by cell density. Cells were photographed under an inverted phase contrast microscope (IX 70, Olympus) using 10× or 20× objective.
Data Analysis. Data were generated from 4-6 replicate wells, expressed as mean±standard deviation (SD), and statistically evaluated at a significance level of […] with one factor ANOVA or Student's t-test by using software […] (http://vassarstats.net/) followed by the Tukey HSD test. Figure symbols are as follows: #, P<0.05, and ##, P<0.01, compared with control; *, P<0.05, and **, P<0.01, compared with the insulted group; §§, P<0.01, compared with PAN-811 treated group by Student's t-test.

[2] = test system: mouse liver cancer cell line BNLT3; experiment: MTS analysis of BNLT3 cancer cells; format: cell-based; conditions: BNLT3, 3 days, 10 μM PAN-811 or both
Protocol: as §1, §2
as §3, with “The preparations were incubated at 37° C. for 2 hours.” left out, “The change in number of cancer cells was judged directly by cell density. Cells were photographed under an inverted phase contrast microscope (IX 70, Olympus) using 10× or 20× objective.” left out
Data Analysis. Data were generated from 4-6 replicate wells, expressed as mean±standard deviation (SD), and statistically evaluated at a significance level of 1% with one factor ANOVA or Student's t-test by using software […] […]

[3] = test system: human lung cancer cell line H460; experiment: MTS analysis of H460 cancer cells; format: cell-based; conditions: H460, 3 days; 3.5 μM CDDP, 10 μM PAN-811 or both; FIG. 5(d)
Protocol: as §1
Cell Insults and Treatments. Determination of concentration for each anticancer drug in our experiments was based on its reported concentration in human cerebral spinal fluid (CSF) in chemotherapy, literature report of its neurotoxicity in culture, and our preliminary in vitro experimental data. […]
(§4) Quantitative Assays and Morphological Assessment. Cell membrane integrity and mitochondrial function of either neurons or cancer cells were measured with LDH and 3-(4,5-dimethylthiazol-2-yl)-5-(3-carboxymethoxyphenyl)-2-(4-sulfophenyl)-2H-tetrazolium [MTS] analyses, respectively. The latter has been used to quantify cell survival. […] The preparations for both assays were then spectrophotometrically measured at 490 nm using a 96-well plate reader (Mode 550, Bio-Rad). Neuronal cell death was morphologically determined based on the integrity of the cell soma and continuity of neuronal processes. […]

[4] = test system: mixed cortical and striatal neurons; experiment: LDH analysis (cell membrane leakage) of neurons insulted with anticancer drugs; format: cell-based; conditions: MTX 100 μM, 5-FU 25 μM, CDDP 3.5 μM
Protocol: Neuronal Cell Culture. Mixed cortical and striatal neurons from embryonic day 17 male Sprague-Dawley rats (tissue obtained from NIH) were seeded into poly-D-lysine coated 96-well plates at density of 50,000 cells/well and initially cultured at 37° C., 5% CO2, in neurobasal medium (NB) with B27 supplement (Invitrogen) containing full strength of AOs to obtain highly enriched (95%) neurons. Since AOs, including vitamin E, vitamin E acetate, superoxide dismutase (SOD), catalase (CAT), and GSH, are additives to culture medium, reduction of AO concentration in culture medium provides an approach to determine the level of OS involvement in a neurotoxic process. […]
as §4

[5] = test system: hydrogen peroxide-induced LDH release; conditions: PAN-811 at 10 μM; compared with untreated and H2O2-insulted group; cited from earlier work
[6] = test system: MCAo infarct formation, brain edema, mortality; conditions: single i.v. bolus, 2 mg/kg, two-hour MCAo; cited from earlier work
[7] = 25 μM 5-FU, 10 μM PAN-811 or cotreatment, FIG. 5(f)
[8] = 3.5 μM CDDP, 10 μM PAN-811 or both, FIG. 5(g)
[9] = 100 μM MTX or 10 μM PAN-811, FIG. 5(e)

| SMILES | increase in LDH reading in the culture supernatant [1, 7] [%] | increase in LDH reading in the culture supernatant [1, 8] [%] | reduction of MTS reading ([2]; 3.5 μM CDDP, FIG. 4(f)) [%] | reduction of MTS reading [3] [%] | LDH increase in culture supernatant (cell membrane leakage) ([4]; neurons in 25% AO, 3 days, FIG. 1(c)) | increase in LDH reading ([4]; neurons, 12.5% AO condition, FIG. 2(b)) | increase in LDH reading in the culture supernatant [1, 9] [%] | reduction of MTS reading ([2]; 100 μM MTX, FIG. 4(d)) | maximal protection against hydrogen peroxide-induced LDH release [5] [%] | maximal protection (reduction of infarct volume) [6] [%] |
| --- | --- | --- | --- | --- | --- | --- | --- | --- | --- | --- |
| O=c1[nH]cc(F)c(=O)[nH]1 [5-FU, 5-fluorouracil] | 124 |  |  |  |  |  |  |  |  |  |
| N.N.[Cl][Pt][Cl] [CDDP] |  | 71 | 44 | 22 | significant LDH increase | significant increases in LDH reading |  |  |  |  |
| CN(Cc1cnc2nc(N)nc(N)c2n1)c1ccc(C(=O)N[C@@H](CCC(=O)O)C(=O)O)cc1 [MTX, methotrexate] |  |  |  |  |  |  | 95 |  |  |  |
| NC(=S)N/N=C/c1ncccc1N [PAN-811, 3-aminopyridine-2-carboxaldehyde thiosemicarbazone] | 30 | 30 | 94 |  |  |  | 31 | the same level as MTX | 90 | 50 |

From patent US10576069B2, “Treatment for chemotherapy-induced cognitive impairment” (Panacea Pharmaceutical Inc., priority 2013, dated 2020)
